{
  "source": "patent US20250073209A1",
  "about": "“COVALENT TARGETING OF RhoA FOR CANCER THERAPY” (The University of Hong Kong, priority 2023, published 2025)",
  "key": {"RhoA": {"target": "RhoA (Homo sapiens, UniProt P61586)", "sequence (P61586 whole entry)": "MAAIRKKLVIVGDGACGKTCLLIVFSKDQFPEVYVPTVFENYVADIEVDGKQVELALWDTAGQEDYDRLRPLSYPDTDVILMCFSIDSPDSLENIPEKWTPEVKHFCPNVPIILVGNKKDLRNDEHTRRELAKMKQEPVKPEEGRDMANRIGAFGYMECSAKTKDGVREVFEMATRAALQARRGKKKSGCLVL", "assay": "Fluorescence assay of MANT-GTP binding onto RhoA", "assay_type": "biochemical", "settings": "pre-incubation of RhoA with CL16", "procedure": "FIGS. 10A and 10B are graphs showing GTP binding assay of RhoA (0.75 μg) with CL16 (FIG. 10A) and GTP-MANT (5.6 μM) (FIG. 10B) in the buffer solution (20 mM Tris, 50 mM NaCl, 10 mM MgCl2, pH 7.5)."}, "[1]": {"system": "phosphorylated MLC (downstream effector of RhoA)", "assay": "Western blotting of phosphorylated MLC, serum starvation-restimulation", "assay_type": "cell-based, human", "settings": "HCT116, serum starvation-restimulation", "procedure": "(§1) Anti-RhoA (#2117), anti-GAPDH (#2118), anti-phosphoMLC (#3671), anti-MLC (#3672), anti-FLAG (#8146), anti-GFP (#2956), and anti-GST (#2624) were purchased from Cell Signaling Technology. Cells were washed with PBS and then harvested using cell lysis buffer (1% Triton X100, 10 mM beta glycerol phosphate, 10 mM sodium pyrophosphate, 40 mM HEPES, 4 mM EDTA, pH7.4) with 4% protease/phosphatase inhibitor cocktail (Pierce). Protein samples were quantified using BCA assays (Pierce), normalized and then boiled with 4× Laemmli sampling buffer in 95° C. for 5 mins. Samples were resolved in 10% polyacrylamide gel (Biorad) and then transferred onto PVDF membrane (Biorad) and blocked with blocking buffer (5% bovine serum albumin (BSA) in Tris-buffered saline with 0.1% Tween 20 (TBST)) for 1 h. Membrane was washed in TBST, followed by incubation with corresponding primary antibodies (diluted 1:1000 in 5% BSA/milk in TBST with 1% NaN3) overnight at 4° C. After washing thrice with TBST, the membrane was incubated with HRP-conjugated secondary antibodies (#7074 or 7076) for one hour at room temperature. The membrane was then incubated with LumiGlo reagent (Cell Signaling Technology) and chemiluminescence was captured using a Chemidoc (Biorad).\nThe effects of CL16 on RhoA downstream signals in CRCs with serum starvation-restimulation were examined."}, "HT29 spheroid": {"system": "HT29 spheroid", "assay": "Spheroid formation assay, HT29", "assay_type": "cell-based, human", "procedure": "FIGS. 5A-5B are graphs showing the anticancer effects of CL16 in HT29 (FIG. 5A) and SW620 (FIG. 5B) spheroids. HT29 spheroid or SW620 spheroid were treated with CL16 at the indicated concentrations for 10 days. The spheroids were then imaged by microscope using 10× objective and the size was determined by ImageJ.\n5,000 cells of HT29 and SW620 cells were inoculated in serum-free DMEM/F12 medium with 20 ng/mL […] growth factor (EGF) in 96-well round-bottom low-affinity plate (Nunc). Medium was supplemented with CL16 or Rhosin when spheroid has formed an opaque core. Morphology was recorded under a light microscope with 10× objective.\nTo further investigate the anticancer effects of CL16, HT29 and SW620 cells were inoculated as spheroids in low-affinity plate with 20 ng/mL EGF, and incubated with different concentrations of CL16 or Rhosin."}, "[2]": {"system": "HCT116, HT29 and SW620 cells", "assay": "Immunoblotting of cell cycle checkpoint proteins", "assay_type": "cell-based, human", "settings": "HCT116, HT29 and SW620, 24 h", "procedure": "as §1, with “After washing thrice with TBST, the membrane was incubated with HRP-conjugated secondary antibodies (#7074 or 7076) for one hour at room temperature. The membrane was then incubated with LumiGlo reagent (Cell Signaling Technology) and chemiluminescence was captured using a Chemidoc (Biorad).” left out\nThe effects of CL16 treatment on cell cycle checkpoint proteins were investigated with immunoblotting of the cell cycle checkpoint proteins in SW620 and HT29 cells after CL16 treatment for 24 h. […] Caspase- 3/7 Green Detection Reagent was used to study apoptosis in HCT116 cells treated with Rhosin by confocal fluorescence imaging. […]"}, "RhoA WT": {"target": "T1, RhoA WT (Homo sapiens, UniProt P61586)", "T1 construct": "endogenous in cells; host or cells: HT29", "assay": "RhoA-GTP rhotekin pull-down in HT29 cells expressing RhoA WT", "assay_type": "cell-based", "settings": "24 h", "procedure": "RhoA Pull-Down Activation Assay Biochem Kit (#BK036) was purchased from Cytoskeleton. According to the manufacturer's protocol, total cell lysate (0.5 mg/mL; 300 μL) was added to 7.5 μL of Rhotekin-Rho Binding Domain beads in 0.6 mL tubes. The solution mixture was incubated at 4° C. on an end-to-end rotator for 1 hour. Beads were washed with 500 μL of washing buffer once, then centrifuged at 5000g for 3 min and the supernatant was discarded. RhoA-GTP was then eluted in 2× laemmli buffer and resolved in 10% SDS-PAGE.\nThe effects of CL16 in HT29 cells expressing RhoA WT protein and HT29 cells with RhoA C16 Å knock-in by CRISPR-Cas9 were investigated, respectively, to validate the molecular mechanism of RhoA inhibition and anti-cancer properties from CL16. […] HT29 cells expressing RhoA WT or C16 Å protein were incubated with solvent vehicle, CL16 or Rhosin in complete medium for 24 h. The cells were then washed, lysed, subjected to rhotekin pull-down and immunoblotted. […] Wound healing assay on HT29 cells expressing RhoA WT or C16 Å protein were incubated with solvent vehicle, CL16 or Rhosin in complete medium for 48 h (FIGS. 19A and 19B)."}, "[3]": {"system": "HT29 cells with C16 Å knock-in", "assay": "Wound healing assay on HT29 cells with RhoA C16A knock-in", "assay_type": "cell-based, human", "settings": "48 h", "procedure": "For wound healing assay, HT29 cells were seeded in 90% confluency, a wound was scratched using a P-20 tip the next day. Cell debris was washed with PBS then aspirated. Then, complete DMEM medium with CL16 or Rhosin with corresponding concentration was added to the cells. Wound closure was recorded every 24 hours under light microscope with 10× objective and measurement of wound area was made by ImageJ.\nHT29 cells with RhoA C16 Å knock-in were prepared by BrainVTA using the CRISPR-Cas9 technique. Briefly, HT29 cells were transfected with RhoA construct with mutated loci in CRISPR/Cas9 vector (U6-sa-sgRNA) using PEI. Cells were subsequently selected with 2 μg/mL puromycin and 800 μg/mL neomycin for 2 weeks. Monoclonal cells were then selected, propagated and subjected to Sanger sequencing to validate the homozygous C16 Å amino acid substitution ([…]) in RhoA gene.\nThe effects of CL16 in HT29 cells expressing RhoA WT protein and HT29 cells with RhoA C16 Å knock-in by CRISPR-Cas9 were investigated, respectively, to validate the molecular mechanism of RhoA inhibition and anti-cancer properties from CL16. […] HT29 cells expressing RhoA WT or C16 Å protein were incubated with solvent vehicle, CL16 or Rhosin in complete medium for 24 h. The cells were then washed, lysed, subjected to rhotekin pull-down and immunoblotted. […]"}},
  "note": "pIC50: −log10 of the molar value.",
  "data": [
    {"smiles": "O=C(CCl)N1N=C(c2cc3ccccc3o2)CC1c1ccco1", "note": "(centres unmarked) [CL16]", "values": [
      {"measurement": "MANT-GTP binding onto RhoA (increase in fluorescence intensity)", "setting": "RhoA", "result": "significantly slowed down the increase in fluorescence intensity"},
      {"measurement": "phosphorylation of MLC upon serum re-stimulation", "setting": "[1]", "result": "significantly eliminated the increases in phosphorylation of MLC"},
      {"measurement": "growth of HT29 spheroids", "setting": "HT29 spheroid; 20 ng/mL EGF, low-affinity plate", "result": "significant inhibitions in the growth"},
      {"measurement": "pIC50", "setting": "HT29 spheroid; Homo sapiens, HT-29, 240 h, 10 days, read-out: cytotoxic IC50 in HT29 spheroids", "result": 5.25},
      {"measurement": "cyclin A2 and cyclin B1 levels", "setting": "[2]", "result": "no significant changes"},
      {"measurement": "p21 and p27 protein levels", "setting": "[2]", "result": "increase in p21 and p27 protein levels"},
      {"measurement": "active RhoA-GTP level", "setting": "RhoA WT", "result": "significant decrease in the active RhoA-GTP level"},
      {"measurement": "cell migration", "setting": "[3]", "result": "no inhibitory effects"}
    ]}
  ]
}
